# Where two headings read alike, the source gives them in different places.
# What was measured:
# [1] = biological target: T1, human mu opioid receptor (Homo sapiens, UniProt P35372); assay: Radioligand binding assay on human mu opioid receptor
# T1 construct: host or cells: CHO-K1
# [2] = test system: loperamide-induced delayed gastric emptying; assay: Rat gastric emptying assay (reversal of loperamide-induced delayed gastric emptying); type: in vivo; conditions: administered orally, loperamide 1 mg/kg s.c., gastric emptying model
# [3] = biological target: T1, human mu opioid receptor; assay: biochemical; conditions: read-out: intrinsic activity (IA), bound [35S]GTPγS relative to DAMGO (IA=100)
# T1 sequence (P35372 whole entry): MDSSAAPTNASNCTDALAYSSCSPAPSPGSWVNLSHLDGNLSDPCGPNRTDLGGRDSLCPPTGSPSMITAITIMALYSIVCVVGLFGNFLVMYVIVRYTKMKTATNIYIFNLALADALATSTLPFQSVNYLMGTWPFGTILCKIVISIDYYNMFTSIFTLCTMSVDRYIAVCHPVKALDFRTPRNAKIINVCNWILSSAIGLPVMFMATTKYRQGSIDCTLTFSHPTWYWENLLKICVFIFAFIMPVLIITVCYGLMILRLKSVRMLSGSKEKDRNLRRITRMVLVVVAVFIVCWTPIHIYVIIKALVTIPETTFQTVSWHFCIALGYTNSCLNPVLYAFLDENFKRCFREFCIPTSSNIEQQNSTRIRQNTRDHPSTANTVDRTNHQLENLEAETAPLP
SMILES,Ki [1],"ID50, dose required for 50% reversal of the effects of loperamide [2]",Emax [3],"Ki ([1]; displacement of [3H]-Diprenorphine 0.5 nM, CHO-K1 cell membranes, read-out: pKi at the human mu opioid receptor (converted))"
"CCC(CC)CN(CCN1[C@@H]2CC[C@H]1C[C@@H](c1cccc(C(N)=O)c1O)C2)C(=O)[C@@H](O)CO [Example 1, 3-endo-(8-{2-[((S)-2,3-Dihydroxypropionyl)-(2-ethylbutyl)-amino]ethyl}-8-azabicyclo[3.2.1]oct-3-yl)-2-hydroxybenzamide]",0.1 nM,0.11 mg/kg,-1%,
"CCC(CC)CN(CCN1[C@@H]2CC[C@H]1C[C@@H](c1cccc(C(N)=O)c1O)C2)C(=O)CO [Example 2, 3-endo-(8-2-[(2-Ethylbutyl)-(2-hydroxyacetyl)amino]-ethyl-8-azabicyclo[3.2.1]oct-3-yl)-2-hydroxybenzamide]",,,,0.1 nM
"NC(=O)c1cccc(C2CC3CCC(C2)N3CCN(CC2CCC(F)(F)CC2)C(=O)CO)c1O (stereo not drawn) [Example 4, 3-endo-(8-2-[(4,4-Difluorocyclohexylmethyl)-(2-hydroxyacetyl)-amino]ethyl-8-azabicyclo[3.2.1]oct-3-yl)-2-hydroxybenzamide]",,0.014 mg/kg,,
"CC(C)(C)CN(CCN1[C@@H]2CC[C@H]1C[C@@H](c1cccc(C(N)=O)c1O)C2)C(=O)[C@@H](O)CO [Example 6, 3-endo-(8-{2-[((S)-2,3-Dihydroxypropionyl)-(2,2-dimethylpropyl)amino]ethyl}-8-azabicyclo[3.2.1]oct-3-yl)-2-hydroxybenzamide]",0.251 nM,0.42 mg/kg,9%,

# Source: patent US9199993B2, “8-azabicyclo[3.2.1]octyl-2-hydroxybenzamide compounds as mu opioid receptor antagonists” (THERAVANCE BIOPHARMA R&D IP, LLC, priority 2007, dated 2015)
